Measured values: PubChem BioAssay (NCI)
Where “and” joins values, the source holds several entries; their conditions need not be identical. Identical values can stand only once.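 48-hour exposure; five concentrations; linearly interpolated endpoints. GI50 is the concentration that inhibits growth by half. TGI is the concentration that stops growth completely.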

Columns and labels:
Assay in all cases: DTP human tumour cell line panel, 48 h
[1] = test system: A549 NSCLC
[2] = test system: UO-31 renal
[3] = test system: OVCAR-4 ovarian
[4] = test system: NCI-H226 lung
[5] = test system: SR leukemia
[6] = test system: RPMI-8226 leukemia
[7] = test system: MDA-MB-231 breast
[8] = test system: LXFL 529 NSCLC
[9] = test system: M19-MEL melanoma

Row | SMILES | GI50 [1] | TGI [1] | GI50 [2] | TGI [2] | GI50 [3] | TGI [3] | GI50 [4] | TGI [4] | GI50 [5] | TGI [5] | GI50 [6] | TGI [6] | GI50 [7] | TGI [7] | TGI [8] | TGI [9]
1 | COC(=O)CCc1c(/C=C2\N=C(c3ccc[nH]3)C=C2OC)[nH]c(C)c1C(=O)OCc1ccccc1 | 0.945 µM | 38.7 µM | 0.155 µM | 0.359 µM | 0.331 µM | > 100 µM | 0.532 µM | 4.75 µM | 0.185 µM | 1.72 µM | 0.343 µM | 2.27 µM | 0.17 µM | 1.57 µM |  | 
2 | Nc1ncnc2c1ncn2C1OC(C(=O)OCCO)C(O)C1O (stereo not given) |  | > 100 µM |  | > 100 µM |  | > 100 µM |  | > 100 µM |  | > 100 µM |  | > 100 µM |  | > 100 µM |  | 
3 | Cn1c(=O)c2[nH]cnc2n(C)c1=O.[CH2-]C(Cc1cccc2cc(C(=O)O)c(=O)oc12)OC.[Hg+2].[OH-] (stereo not given) | 19 µM | 37.4 µM | 16.1 µM | 29.8 µM | 17.9 µM | 35.8 µM | 21.4 µM | 40.7 µM | 20.8 µM | 53.8 µM | 18.2 µM | 65.1 µM | 20.9 µM | 35.6 µM |  | 
4 | NC(N)=N/N=C/c1ccc(Br)cc1 | 6.46 µM | 23.4 µM | 5.72 µM | 19.7 µM | 10.3 µM | 31.6 µM | 5.15 µM | 17.4 µM | 1.84 µM | 47 µM | 11.6 µM | > 100 µM | 4.49 µM | 14 µM |  | 
5 | O=C1C=C(OCC=C(Cl)Cl)C(=O)c2ccccc21 | 33.2 µM | > 100 µM | 3.15 µM | 15.9 µM | 1.61 µM | 3 µM | 18.7 µM | 67.5 µM |  | > 20.4 µM | 0.955 µM | > 20.8 µM | 3.11 µM | 17.7 µM |  | 
6 | NS(=O)(=O)c1ccc(N=Nc2c(=O)[nH]c3ccc4[nH]cccc4c23)cc1 | 1.89 µM | > 25 µM | 1.68 µM | > 25 µM | 0.409 µM | > 6.68 µM | 0.317 µM | 3.06 µM | 0.147 µM | 0.652 µM | 1.97 µM | 14.2 µM | 0.885 µM | > 7.89 µM |  | 
7 | CN1CCN(Cc2ccc(NC(=O)c3cncc(C#Cc4ncc5ccccn45)c3)cc2C(F)(F)F)CC1 | 1.35 µM | 5.48 µM | 1.25 µM | 3.72 µM | 0.531 µM | 4.57 µM | 0.451 µM | 3.91 µM | 0.511 µM | 1.41 µM | 0.858 µM | 4.15 µM | 0.881 µM | 5.92 µM |  | 
8 | COc1cc[nH]c1/C=C1\C(=O)Nc2ccc([N+](=O)[O-])c(N3CC[C@@H](O)C3)c21 | 0.167 µM | 2.18 µM | 0.267 µM | 3.44 µM | 0.488 µM | 2.14 µM | 0.169 µM | 1.69 µM | 0.0536 µM | 0.185 µM | 0.296 µM | 1.14 µM | 0.479 µM | 2.31 µM |  | 
9 | CC1CC2(C)CC(=O)C1C1C(=O)N(CCN3CCOCC3)C(=O)C12 (stereo not given) | > 100 µM | > 100 µM | > 100 µM | > 100 µM | > 100 µM | > 100 µM | > 100 µM | > 100 µM | > 100 µM | > 100 µM |  |  | > 100 µM | > 100 µM |  | 
10 | C=CC(=O)Nc1cccc(Nc2nc(Nc3ccc(N4CCN(C(C)=O)CC4)cc3OC)ncc2C(F)(F)F)c1 | 2.52 µM and 1.81 µM | > 10 µM and 12.1 µM | 2.05 µM and 1.76 µM | > 68.6 µM | 5.12 µM and 1.71 µM | > 65.9 µM | 3.29 µM and 2.38 µM | > 10 µM and 12.7 µM | 3.37 µM and 1.45 µM | 8.32 µM and > 45.3 µM | 4.17 µM and 3.43 µM | > 10 µM and 25.6 µM | 4.47 µM and 4.02 µM | > 10 µM and 20.6 µM |  | 
11 | CCCNC(=O)Nc1ccc2c(c1)Cc1cc(N(CCCl)CCCl)ccc1-2 |  | > 100 µM |  | 82.2 µM |  |  |  |  |  | > 100 µM |  | > 100 µM |  | > 100 µM |  | 
12 | NCCNc1ncnc2ccc(Cl)cc12 |  | > 100 µM |  | > 100 µM |  | > 100 µM |  | > 100 µM |  | > 100 µM |  | > 100 µM |  | > 100 µM |  | 
13 | CNCC1CCn2c(c(C3=C(c4cn(C)c5ccccc45)C(=O)NC3=O)c3ccccc32)C1 (stereo not given) | 3.16 µM | 10.6 µM | 2.6 µM | 6.49 µM | 4.17 µM | 15.5 µM | 3.23 µM | 14.2 µM | 1.79 µM | 8.78 µM | 3.85 µM | 9.86 µM | 2.54 µM | 7.27 µM |  | 
14 | CCCCCCCCCCCCCCCC(N)c1ccccc1 (stereo not given) | 1.78 µM | 3.56 µM | 1.49 µM | 2.97 µM | 1.67 µM | 3.45 µM | 1.91 µM | 3.69 µM | 0.558 µM | 2.43 µM | 2.09 µM | 4.66 µM | 1.35 µM | 2.95 µM |  | 
15 | COc1ccc(-c2cc3c(N)ncnc3o2)cc1 | > 25 µM | > 25 µM | 12.4 µM | > 25 µM | > 25 µM | > 25 µM | > 25 µM | > 25 µM | > 25 µM | > 25 µM | > 25 µM | > 25 µM | > 25 µM | > 25 µM |  | 
16 | O=C(Nc1ccc(N2CCNCC2)cn1)c1[nH]ncc1Nc1ncnc2sc3c(c12)CCC3 | 1.67 µM | 3.5 µM | 1.58 µM | 3.71 µM |  |  | 20 µM | 67.2 µM | 0.246 µM | 0.872 µM | 1.94 µM | 5.82 µM | 1.69 µM | 3.28 µM |  | 
17 | COc1ccc2c(c1)C(=O)c1c-2n(CCCNCCO)c(=O)c2cc([N+](=O)[O-])ccc12 |  |  |  |  | 0.0361 µM | 1.19 µM | 0.0477 µM | 0.97 µM | < 0.01 µM | < 0.01 µM | < 0.01 µM | 0.0469 µM | 0.594 µM | 2.34 µM |  | 
18 | CCC(=O)OCN1C(=O)C=CC1=O |  | 39.9 µM and 34.9 µM | 17.5 µM | 31.7 µM and 20.7 µM | 21.2 µM | 39.5 µM and 34.5 µM | 15.2 µM | 30.1 µM and > 63.3 µM | 3.27 µM | > 100 µM | 19.3 µM and 4.42 µM | 56.2 µM and 13.5 µM |  | 33.2 µM and 33.1 µM |  | 
19 | COc1ccc(S(=O)(=O)N/N=C/CN2C(=O)c3ccccc3C2=O)cc1 |  | > 100 µM |  |  |  | > 100 µM |  | > 100 µM |  | > 100 µM |  | > 100 µM |  |  | > 100 µM | > 100 µM
